Activity calls are given as the source filed them. No rule for the calls is given here.
Key:
[1] = tested on: RSV-infected cells, antiviral CPE inhibition; test: anti-RSV activity in infected cells – counter-screen for VEEV inhibitor project, dose response (AID 602470)
[2] = as above; conditions: RSV-infected cells, antiviral CPE inhibition; at 12.5 µM (top of the series)

| Structure (SMILES) | IC50 [1] [nM] | inhibition [2] |
| --- | --- | --- |
| CN(C(=O)Cc1cccs1)c1nc2c(s1)CCCC2 | 680 | – |
| CN1CCN(Cc2nc3ccc([N+](=O)[O-])cc3c(=O)n2-c2ccccc2F)CC1 | – | 31.6% (inactive) |
| CCN1CCN(Cc2nc3ccc([N+](=O)[O-])cc3c(=O)n2-c2ccccc2F)CC1 | – | 38.2% (inactive) |

Source: PubChem BioAssay AID602470 (Southern Research Specialized Biocontainment Screening …, 2012)
